1 compound from patent US20170038387A1, “METHODS FOR TREATING CHRONIC LYMPHOCYTIC LEUKEMIA AND THE USE OF BIOMARKERS AS A PREDICTOR OF CLINICAL SENSITIVITY TO IMMUNOMODULATORY THERAPIES” (Celgene Corporation, priority 2015, published 2017) can be followed below.

Structures are written as SMILES.

One assay deals with primary CLL samples. Briefly: TMT-tagging and mass-spectrometry profiling of relative protein abundance after compound exposure. Type of assay: cell-based, human. The source says: Data import: Relative abundance (RA) data was imported into the R statistical programming environment v.3.1.2. Proteins with less than one spectral count in any of the three MS runs for each case scenario were filtered out and relative abundance was scale normalized to the same median by using normalizeBetweenArrays( ) function implemented in the limma package for Bioconductor (see Yang et al., Nucleic Acids Research, 30(4), e15 (2002)).
Comparative analysis: RA scores were log 2-transformed to perform direct comparison of compounds exposure versus DMSO control and a paired moderated t-test (see Smyth, Statistical Applications in Genetics and Molecular Biology, 3(1), article 3 (2004)) was performed by using lmfit( ) and eBayes( ) functions form limma package to test differential relative abundance between experimental conditions. For differential analysis across cases, the log-2 fold changes of replicates for two of the case scenarios were considered.
Linear regression analysis: Linear regression was modeled by using lm( ) function from the stats package. This function provided the correlation coefficients as well as the linear fitted model. Data were assessed for outliers detection within the linear model via the Studentized residuals method (implemented in outlierTest( ) function from car package) and deemed significant if their q-values were under a threshold of 0.05 (5%).
The proteins subjected to the analysis were those with more than one spectral count matched in three MS runs representing each case scenario. A total of 6114, 6070, 5982 and 5382 proteins were retained for each case scenario. Differential expression analysis was applied to the high and consistent coverage of 4594 proteins quantified across all case scenarios. FIGS. 2A-2D show distribution of normalized relative abundances for each replicate of the four case scenarios (Cases B1-B4). The standard deviation of each replicate is represented as a stair-plot line at the bottom of the boxplot. FIGS. 3A-3D show heatmaps representing correlations of log 2 fold-changes of protein levels post compound treatment as compared with DMSO across conditions for all case scenarios. Low correlation of log 2 fold-changes at 6 hours may be due to the alteration of a small subset of proteins at an early time point without strong general effects across the proteome. Stronger correlations at 24 hours can be linked to a higher proportion of proteins perturbed reflecting downstream changes upon compound exposure.

Assay [1] deals with samples from CLL patients. Briefly: in vitro proliferation assays on samples from four groups of CLL patients. Type of assay: cell-based, human. The source says: The samples used in this study were from four groups of CLL patients.
The next assay relates to CLL cell lines. Briefly: Thymidine incorporation assay (cell proliferation). Type of assay: cell-based. As for the experimental part:
After four days, cells were diluted 1:7 with fresh media, containing the same concentration of treatment compound. Three days later, ^3H-thymidine was added to label proliferating cells for 6-7 hours. Cells were then harvested onto filter plates for counting on a scintillation counter.
(In general: Dividing cells build labelled thymidine or BrdU into new DNA.)

Setting [2] is: FIG. 5 heatmap, 10 μM, 24 hours, vs DMSO.

In the case of `Nc1cccc2c1CN(C1CCC(=O)NC1=O)C2=O` (centres unmarked) [lenalidomide, 1-oxo-2-(2,6-dioxopiperidin-3-yl)-4-aminoisoindoline, reference compound], in the assay on primary CLL samples (10 μM, 24 hours), the “protein abundance levels of SELL, SNX20 and KLF13 upon exposure” value is recorded as “not affected or slightly increased”. In addition, the figures for the “GZMB protein expression level upon exposure” value in the assay with primary CLL samples (Case B1) and with primary CLL samples (Case B4) were “increased” and “decreased”, respectively. Further, in the assay on primary CLL samples (Case B1), the “level of WIZ (widely-interspaced zinc-finger) upon exposure” value was “increased”. The “levels of Group 4 proteins (6 proteins including IKZF3 and a second IKZF1 isoform) upon exposure” value in the assay on primary CLL samples (setting [2]) is listed as “mild effects”. In addition, the “protein abundance levels of Group 3 proteins (SMNX20, SELL, KLF13, WIZ, IKZF1, NFKBIE, TCF7 and IRF8) upon exposure” value with primary CLL samples (setting [2]) is listed as “do not change or increase”. Further, the entries for the “effect on cell proliferation” value in assay [1] (samples from the fourth group of patients (Case B4)) and in assay [1] (samples from the third group of patients (Case B3)) were “neither Compound A nor lenalidomide had any effect on cell proliferation” and “no effect on cell proliferation”, respectively. Further, the “responsiveness of cell lines to treatment” value was “responsive to both compounds” in the assay with CLL cell lines (Bucket #1 (EHEB and I83-E95)); “responsive to both compounds” in the assay with CLL cell lines (Bucket #2 (Mec2, CII, and CI)); “not responsive to either Compound A or lenalidomide” in the assay with CLL cell lines (Bucket #4 (HG3)).
